According to ChEMBL document CHEMBL1201862, “PubChem BioAssay data set” (2004):
Activity calls are given as the source filed them. Rule as the data show it: active = IC50 of 10 µM or less and inactive = more.

Legend:
Type in all cases: functional
[1] = target: T1, Melanin-concentrating hormone receptor 1 (Homo sapiens, UniProt Q99705); test: Late-stage fluorescence-based counterscreen for antagonists of the G-protein coupled receptor 7 (GPR7): cell-based dose response assay to identify antagonists of the melanin-concentrating hormone receptor 1 (MCHR1) Set 6.
[2] = target: T2, Neuropeptides B/W receptor type 1 (Homo sapiens, UniProt P48145); test: GPR7 antagonist potency, late-stage follow-up, cell-based, fluorescence, dose response, set 6 (AID 588583)
T2 sequence (P48145 whole entry): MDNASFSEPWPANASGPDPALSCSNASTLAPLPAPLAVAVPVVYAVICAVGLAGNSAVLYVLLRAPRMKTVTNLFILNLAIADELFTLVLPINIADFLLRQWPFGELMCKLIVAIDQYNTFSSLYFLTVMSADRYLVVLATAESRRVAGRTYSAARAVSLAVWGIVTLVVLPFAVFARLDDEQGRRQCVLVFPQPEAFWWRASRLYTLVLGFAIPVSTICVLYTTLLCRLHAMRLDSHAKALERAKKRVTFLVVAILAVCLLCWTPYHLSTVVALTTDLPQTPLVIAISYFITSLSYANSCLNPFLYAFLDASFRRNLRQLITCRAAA

[3] = target: T2, Neuropeptides B/W receptor type 1; test: GPR7 antagonist potency, late-stage follow-up, cell-based, fluorescence, dose response, set 5 (AID 588566)
[4] = target: T1, Melanin-concentrating hormone receptor 1; test: Late-stage fluorescence-based counterscreen for antagonists of the G-protein coupled receptor 7 (GPR7): cell-based dose response assay to identify antagonists of the melanin-concentrating hormone receptor 1 (MCHR1) Set 5.

T1 sequence (Q99705 whole entry): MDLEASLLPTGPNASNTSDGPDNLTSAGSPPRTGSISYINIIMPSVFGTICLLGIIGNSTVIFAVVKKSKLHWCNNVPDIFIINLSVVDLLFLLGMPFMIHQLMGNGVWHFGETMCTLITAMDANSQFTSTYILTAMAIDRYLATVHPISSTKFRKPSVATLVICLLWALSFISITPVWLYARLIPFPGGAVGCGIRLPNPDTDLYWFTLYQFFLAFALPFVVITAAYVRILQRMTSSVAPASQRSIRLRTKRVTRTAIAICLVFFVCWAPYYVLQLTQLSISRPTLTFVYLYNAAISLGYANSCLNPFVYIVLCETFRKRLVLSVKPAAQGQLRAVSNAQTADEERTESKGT

Structure (SMILES) | IC50 [1] | IC50 [2] | IC50 [3] | IC50 [4]
CCc1c(C(C#N)c2ccccc2)cnn(Cc2cccc3ccccc23)c1=O (centres undefined) | 4.72 µM (active) | 4.72 µM (active) |  | 
COc1ccc(S(=O)(=O)c2c(Cl)cnn(Cc3cccc4ccccc34)c2=O)cc1 |  |  | ~6.06 µM (active) | 4.44 µM (active)
